{"source": "paper PMC11284792", "about": "“Backbone-Determined Antiarrhythmic Structure–Activity Relationships for a Mirror Image, Oligomeric Depsipeptide Natural Product” (Journal of Medicinal Chemistry, 2024)", "key": {"[1]": {"settings": "amide bond, 24-membered ring, 3 steps"}, "RyR2": {"biological_target": "T1, RyR2 (Mus musculus, UniProt E9Q401)", "T1 construct": "ventricular cardiomyocytes were isolated from C57Bl/6J mice, adhered to laminin-coated glass bottom culture dishes, permeabilized with saponin; endogenous in cells; host or cells: left ventricular cardiomyocytes freshly isolated from C57BL/6J mice, saponin-permeabilized", "T1 sequence (E9Q401 whole entry)": "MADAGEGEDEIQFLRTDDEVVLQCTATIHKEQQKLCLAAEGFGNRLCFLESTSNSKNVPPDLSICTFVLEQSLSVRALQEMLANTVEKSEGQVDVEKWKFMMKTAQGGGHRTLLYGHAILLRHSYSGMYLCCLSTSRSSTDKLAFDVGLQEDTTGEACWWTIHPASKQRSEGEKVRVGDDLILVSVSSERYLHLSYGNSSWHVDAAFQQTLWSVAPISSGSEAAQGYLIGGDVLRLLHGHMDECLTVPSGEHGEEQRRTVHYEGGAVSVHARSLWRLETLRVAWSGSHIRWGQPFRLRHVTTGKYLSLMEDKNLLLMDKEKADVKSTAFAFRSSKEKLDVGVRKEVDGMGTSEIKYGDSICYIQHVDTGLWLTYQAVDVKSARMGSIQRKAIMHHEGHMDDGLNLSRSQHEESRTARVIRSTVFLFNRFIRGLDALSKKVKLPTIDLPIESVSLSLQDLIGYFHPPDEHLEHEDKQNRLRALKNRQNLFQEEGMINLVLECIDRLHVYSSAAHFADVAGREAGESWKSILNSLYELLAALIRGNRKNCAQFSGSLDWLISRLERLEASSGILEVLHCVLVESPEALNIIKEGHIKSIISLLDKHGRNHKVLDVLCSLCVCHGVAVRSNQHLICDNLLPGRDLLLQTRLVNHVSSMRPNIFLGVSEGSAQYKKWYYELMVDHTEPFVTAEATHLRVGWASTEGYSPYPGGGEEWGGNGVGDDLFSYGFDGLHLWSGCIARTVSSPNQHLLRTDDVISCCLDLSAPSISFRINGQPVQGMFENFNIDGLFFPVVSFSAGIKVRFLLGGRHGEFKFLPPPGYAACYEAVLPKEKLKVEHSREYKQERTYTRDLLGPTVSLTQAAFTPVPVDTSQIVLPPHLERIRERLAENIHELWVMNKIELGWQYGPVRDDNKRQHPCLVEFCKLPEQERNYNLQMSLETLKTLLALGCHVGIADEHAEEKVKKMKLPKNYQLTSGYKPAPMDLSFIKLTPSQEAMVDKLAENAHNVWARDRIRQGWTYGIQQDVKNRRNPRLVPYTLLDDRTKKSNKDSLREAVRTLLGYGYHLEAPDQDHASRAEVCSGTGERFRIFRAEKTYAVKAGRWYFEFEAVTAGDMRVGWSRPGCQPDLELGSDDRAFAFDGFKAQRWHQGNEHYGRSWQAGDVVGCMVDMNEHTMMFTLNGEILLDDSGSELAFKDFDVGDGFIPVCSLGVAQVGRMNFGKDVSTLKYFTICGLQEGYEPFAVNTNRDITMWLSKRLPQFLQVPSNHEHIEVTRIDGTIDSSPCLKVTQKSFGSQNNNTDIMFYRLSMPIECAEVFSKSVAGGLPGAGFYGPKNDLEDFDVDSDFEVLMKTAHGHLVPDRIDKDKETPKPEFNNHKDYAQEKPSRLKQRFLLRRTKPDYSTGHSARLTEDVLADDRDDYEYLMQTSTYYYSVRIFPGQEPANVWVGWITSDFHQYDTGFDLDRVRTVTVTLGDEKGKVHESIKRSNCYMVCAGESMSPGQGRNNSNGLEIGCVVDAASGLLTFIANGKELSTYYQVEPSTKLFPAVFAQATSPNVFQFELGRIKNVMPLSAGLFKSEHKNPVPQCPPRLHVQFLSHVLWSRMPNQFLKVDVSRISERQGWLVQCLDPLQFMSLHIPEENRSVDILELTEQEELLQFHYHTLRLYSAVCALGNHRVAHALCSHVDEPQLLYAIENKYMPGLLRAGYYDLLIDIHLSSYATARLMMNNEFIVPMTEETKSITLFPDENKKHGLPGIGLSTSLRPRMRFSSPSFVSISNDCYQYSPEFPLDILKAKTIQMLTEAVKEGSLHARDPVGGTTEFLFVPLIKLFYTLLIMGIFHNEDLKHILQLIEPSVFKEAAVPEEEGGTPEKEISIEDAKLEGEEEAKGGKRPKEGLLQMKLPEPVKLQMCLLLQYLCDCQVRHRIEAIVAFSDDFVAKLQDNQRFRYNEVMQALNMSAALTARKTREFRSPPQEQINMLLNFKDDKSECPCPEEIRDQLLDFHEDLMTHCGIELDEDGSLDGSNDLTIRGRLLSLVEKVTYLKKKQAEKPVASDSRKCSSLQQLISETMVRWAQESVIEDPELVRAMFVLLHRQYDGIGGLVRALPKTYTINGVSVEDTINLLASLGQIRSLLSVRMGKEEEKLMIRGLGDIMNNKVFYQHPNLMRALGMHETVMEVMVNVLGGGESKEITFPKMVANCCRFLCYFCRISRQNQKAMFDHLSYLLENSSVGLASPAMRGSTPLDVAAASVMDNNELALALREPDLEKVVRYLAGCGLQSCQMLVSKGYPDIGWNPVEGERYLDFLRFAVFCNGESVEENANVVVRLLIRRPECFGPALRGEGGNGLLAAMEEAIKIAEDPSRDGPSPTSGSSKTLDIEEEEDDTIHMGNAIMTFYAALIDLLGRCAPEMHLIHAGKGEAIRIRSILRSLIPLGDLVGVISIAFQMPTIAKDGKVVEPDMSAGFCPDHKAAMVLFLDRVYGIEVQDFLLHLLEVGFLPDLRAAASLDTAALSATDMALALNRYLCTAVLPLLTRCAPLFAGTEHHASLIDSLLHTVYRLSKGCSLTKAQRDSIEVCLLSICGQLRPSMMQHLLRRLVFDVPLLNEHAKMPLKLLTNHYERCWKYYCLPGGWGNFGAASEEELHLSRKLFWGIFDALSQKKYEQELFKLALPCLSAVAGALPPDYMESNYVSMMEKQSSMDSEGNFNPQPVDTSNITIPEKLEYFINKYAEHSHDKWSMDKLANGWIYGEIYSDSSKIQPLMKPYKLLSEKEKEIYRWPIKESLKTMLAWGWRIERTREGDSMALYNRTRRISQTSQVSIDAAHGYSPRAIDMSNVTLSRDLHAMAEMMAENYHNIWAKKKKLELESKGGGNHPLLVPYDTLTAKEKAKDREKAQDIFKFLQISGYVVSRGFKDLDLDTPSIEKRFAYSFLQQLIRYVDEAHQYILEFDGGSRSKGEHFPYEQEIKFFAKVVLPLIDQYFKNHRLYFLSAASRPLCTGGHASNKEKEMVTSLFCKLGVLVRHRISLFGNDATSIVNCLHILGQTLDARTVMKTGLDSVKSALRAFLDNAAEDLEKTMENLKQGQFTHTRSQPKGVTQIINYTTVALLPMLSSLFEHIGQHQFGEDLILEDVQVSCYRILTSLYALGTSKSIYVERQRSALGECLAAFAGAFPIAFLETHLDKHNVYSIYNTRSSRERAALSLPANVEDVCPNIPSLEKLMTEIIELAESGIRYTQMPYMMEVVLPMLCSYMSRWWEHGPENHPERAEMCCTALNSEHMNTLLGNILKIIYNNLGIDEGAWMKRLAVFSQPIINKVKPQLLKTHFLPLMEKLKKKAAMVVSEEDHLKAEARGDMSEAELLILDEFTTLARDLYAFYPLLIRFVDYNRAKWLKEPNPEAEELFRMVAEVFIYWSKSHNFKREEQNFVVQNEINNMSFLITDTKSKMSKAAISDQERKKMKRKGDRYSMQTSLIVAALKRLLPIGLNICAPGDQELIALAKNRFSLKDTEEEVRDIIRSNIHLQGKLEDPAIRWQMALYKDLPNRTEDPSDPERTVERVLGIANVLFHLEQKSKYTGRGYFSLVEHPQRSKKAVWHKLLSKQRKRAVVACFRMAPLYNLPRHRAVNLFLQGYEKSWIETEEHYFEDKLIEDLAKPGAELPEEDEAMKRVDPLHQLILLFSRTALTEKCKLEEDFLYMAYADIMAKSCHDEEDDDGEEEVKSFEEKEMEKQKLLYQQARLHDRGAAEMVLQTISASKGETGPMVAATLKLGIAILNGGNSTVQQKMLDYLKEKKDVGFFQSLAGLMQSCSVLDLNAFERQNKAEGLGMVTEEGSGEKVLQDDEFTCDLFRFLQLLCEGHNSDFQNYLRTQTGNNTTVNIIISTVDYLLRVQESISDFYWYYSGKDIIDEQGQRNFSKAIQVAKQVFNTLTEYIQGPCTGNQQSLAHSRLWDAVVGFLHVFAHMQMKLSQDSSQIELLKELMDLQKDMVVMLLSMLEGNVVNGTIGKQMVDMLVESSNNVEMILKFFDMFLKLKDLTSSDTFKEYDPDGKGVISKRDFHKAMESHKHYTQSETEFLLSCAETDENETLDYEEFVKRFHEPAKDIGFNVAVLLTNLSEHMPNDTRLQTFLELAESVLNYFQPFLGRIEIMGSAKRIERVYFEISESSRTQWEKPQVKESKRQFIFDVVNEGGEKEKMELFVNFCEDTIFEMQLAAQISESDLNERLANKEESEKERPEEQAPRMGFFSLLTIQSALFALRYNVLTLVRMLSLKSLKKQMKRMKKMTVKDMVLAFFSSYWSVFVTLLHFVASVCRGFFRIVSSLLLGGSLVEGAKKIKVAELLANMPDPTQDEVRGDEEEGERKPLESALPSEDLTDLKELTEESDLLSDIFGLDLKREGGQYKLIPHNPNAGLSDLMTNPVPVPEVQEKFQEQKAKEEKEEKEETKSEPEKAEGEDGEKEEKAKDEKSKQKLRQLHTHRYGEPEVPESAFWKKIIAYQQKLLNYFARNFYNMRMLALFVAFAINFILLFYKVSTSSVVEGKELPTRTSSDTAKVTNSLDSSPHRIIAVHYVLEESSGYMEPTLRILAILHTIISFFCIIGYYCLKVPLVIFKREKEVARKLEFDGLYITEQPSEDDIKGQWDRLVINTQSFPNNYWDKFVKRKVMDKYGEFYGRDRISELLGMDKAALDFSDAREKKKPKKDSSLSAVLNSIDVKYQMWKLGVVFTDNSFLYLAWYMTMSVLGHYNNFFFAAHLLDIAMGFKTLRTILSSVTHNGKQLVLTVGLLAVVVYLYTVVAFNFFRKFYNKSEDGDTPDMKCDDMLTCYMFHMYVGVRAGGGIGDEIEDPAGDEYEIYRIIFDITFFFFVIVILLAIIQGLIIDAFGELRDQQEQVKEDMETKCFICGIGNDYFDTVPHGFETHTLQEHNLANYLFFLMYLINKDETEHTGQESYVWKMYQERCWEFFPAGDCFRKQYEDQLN", "settings": "25 μM drug, normalized to vehicle (DMSO), mean ± standard deviation, ref Johnston et al. ACS Med. Chem. Lett., 2022, 13(11), 1755–1762, cited from earlier work; for Normalized Calcium Leak: CSV supplement, ent-verticilide and Series 1; for Calcium spark Amplitude (normalized to vehicle) / Calcium spark Leak (normalized to vehicle) / Calcium spark Mass (normalized to vehicle) / Calcium spark Frequency (normalized to vehicle): Supplement Table 1; for Calcium spark Amplitude (normalized to vehicle) / Calcium spark Leak (normalized to vehicle) / Calcium spark Mass (normalized to vehicle): permeabilized murine cardiomyocytes; for Calcium spark Frequency (normalized to vehicle): permeabilized murine left ventricular myocytes, 15 min incubation", "description": "Supplement jm4c00923_si_002.csv, table | column: Normalized Calcium Leak || page 10: Johnston et al. Supporting Information mouse variability provided by Sikkel et al.5 Bonferroni-adjusted P values are reported in the figure legends. A cutoff value of 0.05 was used as the threshold to reject the null hypothesis. Safety: No unexpected or unusually high safety hazards were encountered. Biological Experiment Data: Calcium spark parameters For all series, assay is run with 25 μM solution of drug. Values are normalized to the vehicle (DMSO) condition and reported as mean ± standard deviation. Statistical comparisons were made using a hierarchical clustering model with Bonf ..."}, "[2]": {"settings": "the molecule shown is the open-chain precursor"}, "[3]": {"settings": "the molecule shown is the open-chain precursor, PyBOP"}}, "note": "Read-outs that look alike come from different tables or passages of the source.", "data": [{"substance": "H-dMeAla-MeAhp-dMeAla-MeAhp-dMeAla-MeAhp-dMeAla-Hhp-OH?", "values": [{"measurement": "ring closure, yield after HPLC", "setting": "[1]; [2]", "value": 16, "unit": "%"}]}, {"substance": "H-dAla-MeAhp-dAla-MeAhp-dAla-MeAhp-dAla-MeAhp-OH", "values": [{"measurement": "ring closure, yield after HPLC", "setting": "[1]; [2]", "value": 7, "unit": "%"}]}, {"substance": "H-dAla-Hhp-dAla-Hhp-dMeAla-Hhp-dMeAla-Hhp-OH?", "values": [{"measurement": "ring closure, yield after HPLC", "setting": "[1]; [3]", "value": 11, "unit": "%"}]}, {"substance": "H-dAla-Hhp-dAla-Hhp-dAla-Hhp-dAla-Hhp-OH", "values": [{"measurement": "ring closure, yield after HPLC", "setting": "[1]; [2]", "value": 12, "unit": "%"}]}, {"substance": "H-dAla-Hhp-dAla-MeAhp-dAla-Hhp-dAla-MeAhp-OH?", "values": [{"measurement": "ring closure, yield after HPLC", "setting": "[1]; [2]", "value": 6, "unit": "%"}]}, {"substance": "H-dMeAla-MeAhp-dAla-MeAhp-dMeAla-MeAhp-dAla-MeAhp-OH", "values": [{"measurement": "ring closure, yield after HPLC", "setting": "[1]; [2]", "value": 7, "unit": "%"}]}, {"substance": "H-dMeAla-MeAhp-dAla-MeAhp-dAla-MeAhp-dAla-MeAhp-OH", "values": [{"measurement": "ring closure, yield after HPLC", "setting": "[1]; [2]", "value": 5, "unit": "%"}]}, {"substance": "H-dMeAla-Hhp-dMeAla-Hhp-dMeAla-Ahp-dMeAla-Ahp-OH?", "values": [{"measurement": "ring closure, yield after HPLC", "setting": "[1]; [2]", "value": 7, "unit": "%"}]}, {"substance": "(3R,6S,9R,12S,15R,18S,21R,24S)-3,4,9,15,21-pentamethyl-6,12,18,24-tetrapentyl-1,7,13,19-tetraoxa-4,10,16,22-tetraazacyclotetracosan-2,5,8,11,14,17,20,23-octaone [1.4]", "values": [{"measurement": "Normalized Calcium Leak", "setting": "RyR2", "value": "0.77 ± 0.53"}, {"measurement": "Calcium spark Amplitude (normalized to vehicle)", "setting": "RyR2", "value": "0.93 ± 0.24"}, {"measurement": "Calcium spark Leak (normalized to vehicle)", "setting": "RyR2", "value": "0.77 ± 0.53"}, {"measurement": "Calcium spark Mass (normalized to vehicle)", "setting": "RyR2", "value": "0.84 ± 0.32"}, {"measurement": "Calcium spark Frequency (normalized to vehicle)", "setting": "RyR2", "value": "0.90 ± 0.36"}]}, {"substance": "(3R,6S,9R,12S,15R,18S,21R,24S)-3,4,9,10,15,16,19,21,22-nonamethyl-6,12,18,24-tetrapentyl-1,7,13-trioxa-4,10,16,19,22-pentaazacyclotetracosan-2,5,8,11,14,17,20,23-octaone", "values": [{"measurement": "ring closure, yield after HPLC", "setting": "[1]; PyBOP/DIPEA, DMF, 3.6 mM", "value": 5.1, "unit": "%"}]}, {"substance": "H-dMeAla-Hhp-dAla-Hhp-dAla-Hhp-dAla-Hhp-OH", "values": [{"measurement": "ring closure, yield after HPLC", "setting": "[1]; [2]", "value": 23, "unit": "%"}]}, {"substance": "H-dAla-Hhp-dMeAla-Hhp-dMeAla-Hhp-dMeAla-Hhp-OH", "values": [{"measurement": "ring closure, yield after HPLC", "setting": "[1]; [3]", "value": 18, "unit": "%"}]}, {"substance": "(3R,6S,9R,12S,15R,18S,21R,24S)-3,4,9,10,13,15,16,19,21,22-decamethyl-6,12,18,24-tetrapentyl-1,7-dioxa-4,10,13,16,19,22-hexaazacyclotetracosan-2,5,8,11,14,17,20,23-octaone", "values": [{"measurement": "ring closure, yield after HPLC", "setting": "[1]; PyBOP/DIPEA, DMF, 2.9 mM", "value": 4, "unit": "%"}]}, {"substance": "(3R,6S,9R,12S,15R,18S,21R,24S)-3,4,9,15,16,21-hexamethyl-6,12,18,24-tetrapentyl-1,7,13,19-tetraoxa-4,10,16,22-tetraazacyclotetracosan-2,5,8,11,14,17,20,23-octaone [1.3]", "values": [{"measurement": "Normalized Calcium Leak", "setting": "RyR2", "value": "0.90 ± 0.60"}, {"measurement": "Calcium spark Amplitude (normalized to vehicle)", "setting": "RyR2", "value": "1.04 ± 0.28"}, {"measurement": "Calcium spark Leak (normalized to vehicle)", "setting": "RyR2", "value": "0.90 ± 0.60"}, {"measurement": "Calcium spark Mass (normalized to vehicle)", "setting": "RyR2", "value": "0.91 ± 0.48"}, {"measurement": "Calcium spark Frequency (normalized to vehicle)", "setting": "RyR2", "value": "0.96 ± 0.29"}]}, {"substance": "H-dMeAla-MeAhp-dMeAla-Ahp-dMeAla-Ahp-dMeAla-Ahp-OH", "values": [{"measurement": "ring closure, yield after HPLC", "setting": "[1]; [2]", "value": 9, "unit": "%"}]}, {"substance": "(3R,6S,9R,12S,15R,18S,21R,24S)-3,4,9,10,15,16,21-heptamethyl-6,12,18,24-tetrapentyl-1,7,13,19-tetraoxa-4,10,16,22-tetraazacyclotetracosan-2,5,8,11,14,17,20,23-octaone [1.1]", "values": [{"measurement": "Normalized Calcium Leak", "setting": "RyR2", "value": "1.02 ± 0.71"}, {"measurement": "Calcium spark Amplitude (normalized to vehicle)", "setting": "RyR2", "value": "1.01 ± 0.25"}, {"measurement": "Calcium spark Leak (normalized to vehicle)", "setting": "RyR2", "value": "1.02 ± 0.71"}, {"measurement": "Calcium spark Mass (normalized to vehicle)", "setting": "RyR2", "value": "0.98 ± 0.59"}, {"measurement": "Calcium spark Frequency (normalized to vehicle)", "setting": "RyR2", "value": "1.03 ± 0.27"}]}, {"substance": "H-dMeAla-Ahp-dMeAla-Hhp-dMeAla-Ahp-dMeAla-Hhp-OH", "values": [{"measurement": "ring closure, yield after HPLC", "setting": "[1]; [2]", "value": 10, "unit": "%"}]}, {"substance": "H-dMeAla-Hhp-dMeAla-Hhp-dMeAla-MeAhp-dMeAla-MeAhp-OH", "values": [{"measurement": "ring closure, yield after HPLC", "setting": "[1]; [2]", "value": 4, "unit": "%"}]}, {"substance": "H-dAla-MeAhp-dAla-MeAhp-dMeAla-MeAhp-dMeAla-MeAhp-OH?", "values": [{"measurement": "ring closure, yield after HPLC", "setting": "[1]; [2]", "value": 8, "unit": "%"}]}, {"substance": "H-dAla-MeAhp-dMeAla-MeAhp-dMeAla-MeAhp-dMeAla-MeAhp-OH?", "values": [{"measurement": "ring closure, yield after HPLC", "setting": "[1]; [2]", "value": 8, "unit": "%"}]}, {"substance": "(3R,6S,9R,12S,15R,18S,21R,24S)-1,3,4,7,9,10,13,15,16,19,21,22-dodecamethyl-6,12,18,24-tetrapentyl-1,4,7,10,13,16,19,22-octaazacyclotetracosan-2,5,8,11,14,17,20,23-octaone", "values": [{"measurement": "ring closure, yield after HPLC", "setting": "[1]; PyBOP/DIPEA, DMF", "value": 8, "unit": "%"}]}, {"substance": "H-dMeAla-MeAhp-dMeAla-MeAhp-dMeAla-MeAhp-dMeAla-MeAhp-OH?", "values": [{"measurement": "ring closure, yield after HPLC", "setting": "[1]; [2]", "value": 8, "unit": "%"}]}, {"substance": "H-dMeAla-MeAhp-dMeAla-MeAhp-dMeAla-Ahp-dMeAla-Ahp-OH?", "values": [{"measurement": "ring closure, yield after HPLC", "setting": "[1]; [2]", "value": 6, "unit": "%"}]}, {"substance": "H-dMeAla-Hhp-dMeAla-Hhp-dMeAla-Hhp-dMeAla-Ahp-OH", "values": [{"measurement": "ring closure, yield after HPLC", "setting": "[1]; [2]", "value": 6, "unit": "%"}]}]}
